Experiments:
[1] = test system: large-sized tumor xenografts representing late-stage cancer; test: Efficacy of doxorubicin nanoparticles in late-stage cancer xenograft; format: in vivo, mice; settings: without LED stated
Method: The lung cancer cell line NCI-H460-luc2 (Caliper Life Sciences) was prepared in suspension at 5×10^6 cells.
Tumor growth was monitored using bioluminescence imaging of luciferase-expressing cancer cell lines. Mice were injected intraperitoneally with D-luciferin at a dosage of 150 mg luciferin/kg body weight. Mice were then anesthetized under isoflurane gas supplemented with oxygen and placed under a camera equipped with a Xenogen IVIS 200 imager to generate a bioluminescent image using an IVIS imaging system (Xenogen). Bioluminescence color images were superimposed using Living Image software.

[2] = test system: human breast xenograft tumors (MDA-MB-231); test: Tumor targeting efficacy: drug distribution between tumor and healthy tissues in xenograft mice (LC/MS); format: in vivo; settings: 10 mg/kg/day i.v., organs collected 16 hours after administration; for healthy % ID/g: healthy tissues
Method: (§1) To evaluate the tumor-targeting characteristics of the targeting-enhanced nanoparticles formulated in the Examples 1 and 2, the nanoparticles were injected into mice containing human breast xenograft tumors, and the distribution of radioactivity between tumor tissues and healthy tissues was analyzed.
(§2) When the tumors reached a size of ˜100 mm^3, mice were treated intravenously with either saline control or nanoparticle preparations prepared in Examples 1 and 2, at a dose of 10 mg/kg/day. Organs from each mouse were collected at 16 hours after nanoparticle administration and ground completely with the Beadbeater. The analyte drugs were extracted from the ground tissues with acetonitrile, and the drug concentrations in each tissue were analyzed by LC/MS. The drug concentrations delivered to each tissue relative to the Injected Dose (ID) were measured in both healthy and tumor tissues, as shown in Table 3.
(§3) Targeting-enhanced nanoparticles containing paclitaxel were administered intravenously to mice with tumor xenografts, and at 4 hours after injection, the mice were exposed to a light-emitting diode, LED, at the wavelength of 630 nm at an intensity of […] for 30 minutes.

[3] = as above; format: in vivo; settings: female, athymic nude, mouse, iv; tumor tissue; 10 mg/kg/day i.v.; organs collected 16 hours after administration
Method: as §1, §2, §3

healthy mice = test: Toxicity (LD50) in healthy mice; format: in vivo; settings: monitored 14 days, based on mortality
Method: After establishment of the tumor-xenograft model, either healthy mice or tumor-xenografted mice were divided into three groups (n=6) receiving saline solution (control group), free paclitaxel at the indicated dose, or targeting-enhanced nanoparticles in saline solution at the indicated dose of paclitaxel. […] To evaluate their toxicity, targeting-enhanced nanoparticles were administered to healthy mice and tumor-xenograft mice at 10 different dosages of paclitaxel: 20, 40, 60, 80, 100, 120, 250, 300, 350, and 400 mg/kg/day. Body weights and physical changes were monitored over 14 days, and the LD50s were calculated based on mortality.

Compound | tumor growth day 0 to day 28 (FIG. 10) [1] | healthy % ID/g [2] | tissue uptake at 16 h [3] | tumor % ID/g ([2]; tumor tissue) | LD50 (healthy mice)
COc1cccc2c1C(=O)c1c(O)c3c(c(O)c1C2=O)C[C@@](O)(C(=O)CO)C[C@@H]3O[C@H]1C[C@H](N)[C@H](O)[C@H](C)O1 [Free drug doxorubicin, doxorubicin] | clear tumor growth | 0.4~3.4 % ID/g | 1.5 %ID/g |  | 
O=C1[O][Pt]2([NH][C@@H]3CCCC[C@H]3[NH]2)[O]C1=O [Free drug oxaliplatin, oxaliplatin] |  | 0.1~3.5 % ID/g |  | 2.5 % ID/g | 
Nc1ccn([C@@H]2O[C@H](CO)[C@@H](O)C2(F)F)c(=O)n1 [Free drug gemcitabine, gemcitabine] |  | 0.2~4.2 % ID/g | 2.4 %ID/g |  | 
CC(=O)O[C@H]1C(=O)[C@@]2(C)[C@H]([C@H](OC(=O)c3ccccc3)[C@]3(O)C[C@H](OC(=O)[C@H](O)[C@@H](NC(=O)c4ccccc4)c4ccccc4)C(C)=C1C3(C)C)[C@]1(OC(C)=O)CO[C@@H]1C[C@@H]2O [Free drug paclitaxel, paclitaxel] |  |  | 0.52 %ID/g |  | 30 mg/kg/day

Reference: patent US10286004B2, “Targeting-enhanced anticancer nanoparticles and preparation methods of same” (JINIS CO., LTD., priority 2013, dated 2019)
